The results in this text go back to PubChem BioAssay (NCI).

Test systems include DU-145 prostate; IGROV1 ovarian; HS 578T breast; SK-MEL-2 melanoma; OVCAR-8 ovarian; SNB-19 CNS; SF-539 CNS; OVCAR-5 ovarian; M14 melanoma; MALME-3M melanoma.
Test in all cases: inhibition of tumour cell growth, NCI panel, 48 h

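Five concentrations, 48 hours, 96-well plates. GI50: concentration for 50% inhibition of growth. TGI marks complete inhibition of growth.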

As for `CCCC[C@H](NC(=O)[C@H]1CCCN1C)C(=O)N(C)[C@H](C[C@@H](OC(C)=O)c1nc(C(=O)N[C@@H](Cc2ccccc2)C[C@H](C)C(=O)OCC)cs1)C(C)C`, the GI50 with DU-145 prostate is 0.0137 µM; in the test on IGROV1 ovarian, 0.0157 µM; with HS 578T breast, 0.0186 µM; with SK-MEL-2 melanoma it was 0.00613 µM; with OVCAR-8 ovarian, 0.036 µM; in the test on SNB-19 CNS, 0.01 µM. The figures for the GI50 with SF-539 CNS, in the test with OVCAR-5 ovarian and with M14 melanoma were 0.022 µM, 0.0642 µM and 0.0163 µM, respectively. Also, the TGI in the test on DU-145 prostate is over 33.3 µM; in the test with IGROV1 ovarian, over 33.3 µM; with HS 578T breast it was 6.92 µM; with SK-MEL-2 melanoma, 8.71 µM; in the test with OVCAR-8 ovarian it was over 33.3 µM; in the test with SNB-19 CNS, over 33.3 µM. Further, the figures for the TGI with SF-539 CNS, in the test with OVCAR-5 ovarian and in the test on M14 melanoma were 0.241 µM, over 33.3 µM and 3.77 µM, respectively.

Regarding `CC1(C)SC2C(NC(=O)C(N)c3ccccc3)C(=O)N2C1C(=O)O` (stereo not drawn), the TGI in the test with DU-145 prostate, with IGROV1 ovarian, with HS 578T breast, in the test with SK-MEL-2 melanoma, in the test on OVCAR-8 ovarian and in the test on SNB-19 CNS was over 100 µM each time. Besides, the TGI with SF-539 CNS, in the test with OVCAR-5 ovarian and with M14 melanoma was over 100 µM throughout.

Consider `Cc1ccc(/C=C2\CN(C(=O)OC(C)(C)C)C/C(=C\c3ccc(C)cc3)C2=O)cc1`, for which the GI50 is 0.158 µM in the test on DU-145 prostate; 0.367 µM with IGROV1 ovarian; 0.0562 µM in the test on HS 578T breast; 0.918 µM in the test with OVCAR-8 ovarian; 0.226 µM with SNB-19 CNS; 0.391 µM with OVCAR-5 ovarian. Moreover, the GI50 in the test on M14 melanoma was 0.0608 µM. Besides, the TGI with DU-145 prostate is over 100 µM; in the test on IGROV1 ovarian it was over 100 µM; with MALME-3M melanoma it was over 100 µM; in the test with HS 578T breast, 3.45 µM; with SK-MEL-2 melanoma, over 100 µM; in the test with OVCAR-8 ovarian, over 100 µM. The TGI with SNB-19 CNS, in the test with OVCAR-5 ovarian and with M14 melanoma was over 100 µM in each case.

As to `COc1ccc(-c2ccc(/C=N/n3c(COc4ccc(Cl)cc4Cl)n[nH]c3=S)o2)c([N+](=O)[O-])c1`, the GI50 with DU-145 prostate was 38.3 µM; with IGROV1 ovarian it was 38.7 µM; in the test on MALME-3M melanoma, 19.9 µM; in the test with HS 578T breast it was 40.8 µM; with OVCAR-8 ovarian it was 29.7 µM; in the test on SNB-19 CNS, 28.4 µM. The GI50 in the test on SF-539 CNS was 25.7 µM; with OVCAR-5 ovarian, 21.3 µM; in the test on M14 melanoma, 16 µM. Moreover, the TGI in the test on DU-145 prostate is over 100 µM; with IGROV1 ovarian, over 100 µM; with MALME-3M melanoma, 45.1 µM; in the test with HS 578T breast, over 100 µM; with OVCAR-8 ovarian, over 100 µM; in the test with SNB-19 CNS, over 100 µM. For the same molecule, the values for the TGI in the test on SF-539 CNS, in the test on OVCAR-5 ovarian and with M14 melanoma were 49.7 µM, 47.6 µM and 31.6 µM, respectively.

As for `Cc1ccc2c(ccc3c[n+]4c5ccccc5ccc4n32)c1`, the GI50 in the test on DU-145 prostate is 1.32 µM; with IGROV1 ovarian, 1.52 µM; in the test on MALME-3M melanoma, 0.316 µM; in the test with HS 578T breast it was 0.959 µM; in the test with SK-MEL-2 melanoma, 1.64 µM; in the test on OVCAR-8 ovarian it was 0.688 µM. In addition, the GI50 with SNB-19 CNS was 0.494 µM; with OVCAR-5 ovarian it was 4.42 µM; in the test on M14 melanoma, 1.35 µM. Further, the TGI in the test with DU-145 prostate was 12.3 µM; in the test on IGROV1 ovarian, 18.6 µM; in the test with MALME-3M melanoma it was 1.59 µM; in the test on HS 578T breast it was 4.71 µM; in the test with SK-MEL-2 melanoma, 3.9 µM; with OVCAR-8 ovarian it was 9.72 µM. The TGI with SNB-19 CNS stood at 3.38 µM; in the test with OVCAR-5 ovarian, 45.1 µM; in the test on M14 melanoma, 4.68 µM.

Take `O=C1c2ccccc2-c2c1c1ccccc1c(=O)n2CCCNCCCNCCCn1c2c(c3ccccc3c1=O)C(=O)c1ccccc1-2`: the GI50 was 0.0295 µM in the test with DU-145 prostate; under 0.01 µM in the test on IGROV1 ovarian; 0.0984 µM in the test with HS 578T breast; 15 µM in the test on SK-MEL-2 melanoma; under 0.01 µM in the test on OVCAR-8 ovarian; 0.681 µM in the test on SNB-19 CNS. Further, the figures for the GI50 in the test on OVCAR-5 ovarian and in the test on M14 melanoma were 0.0763 µM and 0.333 µM, respectively. The TGI in the test with DU-145 prostate was 0.181 µM; in the test with IGROV1 ovarian, under 0.0416 µM; in the test on HS 578T breast it was 1.28 µM; with SK-MEL-2 melanoma, 28.2 µM; in the test with OVCAR-8 ovarian it was 0.201 µM; in the test on SNB-19 CNS, 4.1 µM. The TGI came out at 0.731 µM in the test on OVCAR-5 ovarian and 1.29 µM with M14 melanoma.

Turning to `COc1nc(NC2OCC(OC(C)=O)C(OC(C)=O)C2OC(C)=O)c(N=CC=Nc2c(NC3OCC(OC(C)=O)C(OC(C)=O)C3OC(C)=O)nc(OC)n(C)c2=O)c(=O)n1C` (stereo not drawn), the TGI in the test on IGROV1 ovarian, in the test with MALME-3M melanoma, in the test on SK-MEL-2 melanoma, in the test on OVCAR-8 ovarian, with SNB-19 CNS and in the test with SF-539 CNS was over 100 µM each time. Moreover, the TGI in the test with OVCAR-5 ovarian and with M14 melanoma was over 100 µM in each case.

Regarding `COc1cccc(NC(=O)CC(=O)N2N=C(N(CCC#N)c3ccc(Cl)cc3)CC2c2ccccc2)c1` (stereo not drawn), the TGI in the test on IGROV1 ovarian, in the test on MALME-3M melanoma, in the test on SK-MEL-2 melanoma, in the test on OVCAR-8 ovarian, with SNB-19 CNS and in the test on SF-539 CNS was over 100 µM in each case. Also, the TGI in the test with OVCAR-5 ovarian and in the test with M14 melanoma was over 100 µM throughout.

With `COC(=O)/C=C/C=C(c1ccccc1)c1ccccc1`, the GI50 is 5.48 µM in the test with DU-145 prostate; 4.23 µM in the test with MALME-3M melanoma; 8.65 µM in the test with HS 578T breast; 15 µM in the test on OVCAR-8 ovarian; 9.31 µM in the test with SNB-19 CNS; 5.17 µM in the test with SF-539 CNS. Further, the GI50 is 14 µM with OVCAR-5 ovarian and 3.36 µM with M14 melanoma. Also, the TGI with DU-145 prostate was 52.8 µM; in the test with MALME-3M melanoma it was 30.4 µM; in the test on HS 578T breast, 46 µM; in the test on OVCAR-8 ovarian, over 100 µM; in the test with SNB-19 CNS, over 100 µM; with SF-539 CNS, 43.3 µM. Also, the TGI in the test with OVCAR-5 ovarian is over 100 µM; in the test on M14 melanoma it was 17.5 µM.

As for `CCCCCCCCCc1cc(=O)c2ccc(OCc3ccccc3)cc2o1`, the TGI in the test with IGROV1 ovarian, in the test with MALME-3M melanoma, with SK-MEL-2 melanoma, with OVCAR-8 ovarian, in the test with SNB-19 CNS and with SF-539 CNS was over 100 µM in each case. Further, the TGI in the test with OVCAR-5 ovarian and in the test with M14 melanoma was over 100 µM in each case.

On to `CNC(=O)OCc1nc(SC2CCCCO2)n(C)c1COC(=O)NC` (stereo not drawn), for which the TGI with IGROV1 ovarian, in the test on MALME-3M melanoma, in the test on SK-MEL-2 melanoma, in the test with OVCAR-8 ovarian, in the test with SNB-19 CNS and with SF-539 CNS was over 100 µM throughout. Also, the TGI with OVCAR-5 ovarian and with M14 melanoma was over 100 µM each time.

Take `O=C(Cn1ccc(=O)[nH]c1=O)Nc1ccc(C(=O)O)c(O)c1`: the TGI in the test on DU-145 prostate, in the test with IGROV1 ovarian, in the test on MALME-3M melanoma, in the test with HS 578T breast, in the test on SK-MEL-2 melanoma and in the test with OVCAR-8 ovarian was over 100 µM in each case. Besides, the TGI with SNB-19 CNS, in the test on OVCAR-5 ovarian and with M14 melanoma was over 100 µM each time.

For `COc1c2c(c3c(c1CCC(=O)O)OC(C)(C)C=C3)OC(C)(C)C=C2`, the TGI in the test with DU-145 prostate, in the test with IGROV1 ovarian, in the test on MALME-3M melanoma, in the test with HS 578T breast, in the test with SK-MEL-2 melanoma and in the test with OVCAR-8 ovarian was over 100 µM in each case. Further, the TGI in the test with SNB-19 CNS, with OVCAR-5 ovarian and in the test on M14 melanoma was over 100 µM each time.

`O=C(O)c1ccc([Se][Se]c2ccc(C(=O)O)cc2)cc1`: the TGI in the test with IGROV1 ovarian was 71.1 µM; in the test with MALME-3M melanoma, 68.3 µM; with SK-MEL-2 melanoma it was 63.2 µM; in the test with OVCAR-8 ovarian it was 70.8 µM; in the test on SNB-19 CNS, over 100 µM; in the test on SF-539 CNS, 92.1 µM. Besides, the TGI is 66.8 µM in the test with OVCAR-5 ovarian and 35.6 µM in the test on M14 melanoma.

`O=C([O-])c1ccccc1Nc1ccccn1.O=C([O-])c1ccccc1Nc1ccccn1.[Ni+2]`: the GI50 with IGROV1 ovarian was over 100 µM; in the test with MALME-3M melanoma it was over 100 µM; with SK-MEL-2 melanoma, over 100 µM; in the test with OVCAR-8 ovarian it was over 100 µM; in the test on SNB-19 CNS, over 100 µM; in the test on SF-539 CNS, 72.4 µM. Also, the values for the GI50 in the test with OVCAR-5 ovarian and with M14 melanoma were 75.6 µM and over 100 µM, respectively. Besides, the TGI in the test on IGROV1 ovarian, in the test with MALME-3M melanoma, with SK-MEL-2 melanoma, in the test with OVCAR-8 ovarian, in the test with SNB-19 CNS and in the test with SF-539 CNS was over 100 µM throughout. For the same molecule, the TGI in the test on OVCAR-5 ovarian and in the test on M14 melanoma was over 100 µM throughout.

With `CC(=O)NNc1nc(C)c(C(=O)NNC(=O)C(=O)Nc2ccccc2C#N)s1`, the TGI with IGROV1 ovarian, in the test on MALME-3M melanoma, in the test on SK-MEL-2 melanoma, with OVCAR-8 ovarian, in the test with SNB-19 CNS and in the test with SF-539 CNS was over 100 µM throughout. Besides, the TGI with OVCAR-5 ovarian and with M14 melanoma was over 100 µM throughout.
